The source of these data is US8058475B2, “Substituted cyclohexylmethyl compounds” (Gruenenthal GmbH, priority 2005, dated 2011).

The target in the assay is human μ-opiate receptor (Homo sapiens, UniProt P35372). Description: Affinity for the human μ-opiate receptor ([3H]-naloxone displacement, SPA, CHO-K1 membrane preparation). The assay is classed as binding. The settings on record: for Ki: read-out: μ-Opioid receptor, Ki; for inhibition at 1 µM: read-out: μ-Opioid receptor, % inhibition [1 μM].
Sequence of human μ-opiate receptor (P35372 whole entry): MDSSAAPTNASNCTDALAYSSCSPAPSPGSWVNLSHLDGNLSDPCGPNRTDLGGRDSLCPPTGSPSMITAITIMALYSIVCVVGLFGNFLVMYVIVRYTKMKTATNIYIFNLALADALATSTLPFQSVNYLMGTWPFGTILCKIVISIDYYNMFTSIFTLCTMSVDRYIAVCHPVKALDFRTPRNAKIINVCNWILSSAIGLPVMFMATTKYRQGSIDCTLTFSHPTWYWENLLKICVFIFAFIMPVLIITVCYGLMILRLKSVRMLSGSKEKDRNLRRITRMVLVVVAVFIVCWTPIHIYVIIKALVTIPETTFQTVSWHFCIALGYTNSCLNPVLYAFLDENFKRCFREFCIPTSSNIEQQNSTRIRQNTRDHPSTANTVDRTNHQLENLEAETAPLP
Where [1] appears, read: 1 μM test substance, inhibition of specific [3H]-naloxone binding.

Like-named read-outs stand apart in the source and are kept apart here.

The Ki is a measure of affinity in units of concentration, obtained from inhibition or displacement. With `CN(C)C(c1cccc(F)c1)C1CCC(CNC(=O)c2cccs2)CC1` (single isomer, unassigned) [compound 340, thiophene-2-carboxylic acid {4-[dimethylamino-(3-fluoro-phenyl)-methyl]-cyclohexylmethyl}-amide], the “μ-Opioid receptor, % inhibition [1 μM]” value turned out to be 91% and the Ki is 55 nM.

One may read the inhibition as the relative decrease from the control value, in per cent. On to `CCCCCC1(O)CCC(C(c2ccc(Cl)cc2)N(C)C)CC1` (stereo not shown) [compound 169, 4-[(4-chloro-phenyl)-dimethylamino-methyl]-1-pentyl-cyclohexanol], for which, under setting [1], the inhibition at 1 µM stood at 71%.

Take `CN(C)C(c1ccc(Cl)cc1)C1CCC(CCNC(=O)c2cccc(Cl)c2)CC1` (stereo not shown) [compound 399, 3-chloro-N-(2-{4-[(4-chloro-phenyl)-dimethylamino-methyl]-cyclohexyl}-ethyl)-benzamide]: the inhibition at 1 µM is 80% and the Ki amounted to 110 nM.

For the compound `Cc1cc(C2(O)CCC(C(c3ccc(Cl)cc3)N(C)C)CC2)ccc1F` (stereo not shown) [compound 160, 4-[(4-chloro-phenyl)-dimethylamino-methyl]-1-(4-fluoro-3-methyl-phenyl)-cyclohexanol], the inhibition at 1 µM under setting [1] is 67%.

As for `CN(C)C(c1ccccc1)C1CCC(NC(=O)c2cncc(Br)c2)CC1` (stereo not shown) [compound 235, 5-bromo-N-[4-(dimethylamino-phenyl-methyl)-cyclohexyl]-nicotinamide], the inhibition at 1 µM stood at 84% and the inhibition constant (Ki) stood at 61 nM.

In the case of `CN(C)C(c1cccc(F)c1)C1CCC(CCNC(=O)c2ccccc2F)CC1` (stereo not shown) [compound 411, N-(2-{4-[dimethylamino-(3-fluoro-phenyl)-methyl]-cyclohexyl}-ethyl)-2-fluoro-benzamide], the inhibition at 1 µM was found to be 99% and the inhibitory constant (Ki) is 11 nM.

For the compound `CN(C)C(c1cccs1)C1CCC(CNC(=O)Cc2ccc(Cl)cc2)CC1` (stereo not shown) [compound 311, 2-(4-chloro-phenyl)-N-[4-(dimethylamino-thiophen-2-yl-methyl)-cyclohexyl-methyl]-acetamide], the inhibition at 1 µM turned out to be 98% and the Ki worked out at 11 nM.

With `Cc1cc(C(=O)NC2CCC(C(c3ccccc3)N(C)C)CC2)n(C(C)(C)C)n1` (stereo not shown) [compound 247, 2-tert-butyl-5-methyl-2H-pyrazole-3-carboxylic acid [4-(dimethylamino-phenyl-methyl)-cyclohexyl]-amide], the “μ-Opioid receptor, % inhibition [1 μM]” value is given as 82% and the Ki stood at 36 nM.

Consider `Cc1cc(C(=O)NC2CCC(C(c3ccccc3)N(C)C)CC2)no1` (stereo not shown) [compound 282, 5-methyl-isoxazole-3-carboxylic acid [4-(dimethylamino-phenyl-methyl)-cyclohexyl]-amide], for which the inhibition at 1 µM was 73% and the Ki is 110 nM.

Consider `Cc1ccc(C(=O)NC2CCC(C(c3cccs3)N(C)C)CC2)cc1` (stereo not shown) [compound 198, N-[4-(dimethylamino-thiophen-2-yl-methyl)-cyclohexyl]-4-methyl-benzamide], for which the inhibition at 1 µM worked out at 95% and the Ki was 15 nM.

As to `COc1c(C(=O)NC2CCC(C(c3ccc(F)cc3)N(C)C)CC2)csc1Cl` (stereo not shown) [compound 211, 5-chloro-4-methoxy-thiophene-3-carboxylic acid {4-[dimethylamino-(4-fluoro-phenyl)-methyl]-cyclohexyl}-amide], the inhibition at 1 µM was determined as 92%.

On to `CN(C)C(c1ccccc1)C1CCC(NC(=O)c2cc(C(F)(F)F)ccc2F)CC1` (stereo not shown) [compound 205, N-[4-(dimethylamino-phenyl-methyl)-cyclohexyl]-2-fluoro-5-trifluoromethyl-benzamide], for which the inhibition at 1 µM came out at 94% and the inhibitory constant (Ki) was 22 nM.

For `CN(C)C(c1ccc(Cl)cc1)C1CCC(CNC(=O)C(c2ccccc2)c2ccccc2)CC1` (stereo not shown) [compound 312, N-{4-[(4-chloro-phenyl)-dimethylamino-methyl]-cyclohexylmethyl}-2,2-diphenyl-acetamide], the inhibition at 1 µM amounted to 97% and the Ki was found to be 53 nM.

Consider `CN(C)C(c1cccc(F)c1)C1CCC(CNC(=O)c2csc(-c3ccccc3)n2)CC1` (stereo not shown) [compound 365, 2-phenyl-thiazole-4-carboxylic acid {4-[dimethylamino-(3-fluoro-phenyl)-methyl]-cyclohexylmethyl}-amide], for which the inhibition at 1 µM came out at 85% and the Ki was 74 nM.

In the case of `CCCCCC1(O)CCC(C(c2cccc(F)c2)N(C)C)CC1` (stereo not shown) [compound 154, 4-[dimethylamino-(3-fluoro-phenyl)-methyl]-1-pentyl-cyclohexanol], the inhibition at 1 µM under setting [1] was found to be 50%.

For the compound `CN(C)C(c1ccccc1)C1CCC(CNC(=O)c2cccc(C(F)(F)F)c2)CC1` (single isomer, unassigned) [compound 333, N-[4-(dimethylamino-phenyl-methyl)-cyclohexylmethyl]-3-trifluoromethyl-benzamide], the “μ-Opioid receptor, % inhibition [1 μM]” value was 92% and the Ki was 17 nM.

Take `CN(C)C(c1ccccc1)C1CCC(NC(=O)c2cccs2)CC1` (single isomer, unassigned) [compound 245, thiophene-2-carboxylic acid [4-(dimethylamino-phenyl-methyl)-cyclohexyl]-amide]: the inhibition at 1 µM is 82% and the Ki came out at 66 nM.

As for `CCn1nc(C)c(Br)c1C(=O)NCC1CCC(C(c2ccccc2)N(C)C)CC1` (stereo not shown) [compound 390, 4-bromo-2-ethyl-5-methyl-2H-pyrazole-3-carboxylic acid [4-(dimethylamino-phenyl-methyl)-cyclohexylmethyl]-amide], the inhibition at 1 µM turned out to be 81%.

In the case of `CC(C)S(=O)(=O)c1csc(C(=O)NCC2CCC(C(c3cccs3)N(C)C)CC2)c1Cl` (stereo not shown) [compound 367, 3-chloro-4-(propane-2-sulfonyl)-thiophene-2-carboxylic acid [4-(dimethylamino-thiophen-2-yl-methyl)-cyclohexylmethyl]-amide], the inhibition at 1 µM stood at 85% and the Ki was 110 nM.

Turning to `CN(C)C(c1ccccc1)C1CCC(NC(=O)COc2ccc(Cl)cc2)CC1` (stereo not shown) [compound 284, 2-(4-chloro-phenoxy)-N-[4-(dimethylamino-phenyl-methyl)-cyclohexyl]-acetamide], the inhibition at 1 µM was determined as 72% and the Ki is 63 nM.

Take `COC(=O)C(Cc1c[nH]c2ccccc12)NC1CCC(C(c2ccccc2)N(C)C)CC1` (single isomer, unassigned) [compound 175, methyl 2-(4-((dimethylamino)(phenyl)methyl)cyclohexylamino)-3-(1H-indol-3-yl)propanoate]: the Ki was 11 nM. For the same compound, the “μ-Opioid receptor, % inhibition [1 μM]” value under setting [1] was 86%.

On to `CN(C)C(c1ccc(Cl)cc1)C1CCC(CCNC(=O)c2cc(F)c(Cl)cc2Cl)CC1` (stereo not shown) [compound 437, 2,4-dichloro-N-(2-{4-[(4-chloro-phenyl)-dimethylamino-methyl]-cyclohexyl}-ethyl)-5-fluoro-benzamide], for which the inhibition at 1 µM was found to be 80% and the inhibition constant Ki is 100 nM.

Turning to `CN(C)C(c1ccccc1)C1CCC(CNC(=O)c2cncc(Br)c2)CC1` (stereo not shown) [compound 386, 5-bromo-N-[4-(dimethylamino-phenyl-methyl)-cyclohexylmethyl]-nicotinamide], the inhibition at 1 µM worked out at 82% and the Ki was determined as 100 nM.

On to `Cc1ccc(Oc2ncccc2C(=O)NCC2CCC(C(c3ccc(Cl)cc3)N(C)C)CC2)cc1` (stereo not shown) [compound 382, N-{4-[(4-chloro-phenyl)-dimethylamino-methyl]-cyclohexylmethyl}-2-p-tolyloxy-nicotinamide], for which the inhibition at 1 µM amounted to 83%.

Consider `COc1ccccc1C(=O)NCC1CCC(C(c2cccs2)N(C)C)CC1` (stereo not shown) [compound 305, N-[4-(dimethylamino-thiophen-2-yl-methyl)-cyclohexylmethyl]-2-methoxy-benzamide], for which the inhibition at 1 µM stood at 98% and the Ki turned out to be 12 nM.

For `CN(C)C(CCc1ccccc1)C1CCC(NC(=O)c2cc(F)ccc2F)CC1` (stereo not shown) [compound 276, N-[4-(1-dimethylamino-3-phenyl-propyl)-cyclohexyl]-2,5-difluoro-benzamide], the inhibition at 1 µM amounted to 74% and the Ki came out at 65 nM.

Regarding `CN(C)C(c1ccc(Cl)cc1)C1CCC(CNC(=O)c2ccccc2Br)CC1` (stereo not shown) [compound 394, 2-bromo-N-{4-[(4-chloro-phenyl)-dimethylamino-methyl]-cyclohexylmethyl}-benzamide], the inhibition at 1 µM came to 79% and the Ki stood at 48 nM.

As to `CN(C)C(c1ccccc1)C1CCC(CCNC(=O)c2cccnc2Sc2ccc(Cl)cc2)CC1` (single isomer, unassigned) [compound 471, 2-(4-chloro-phenylsulfanyl)-N-{2-[4-(dimethylamino-phenyl-methyl)-cyclohexyl]-ethyl}-nicotinamide], the “μ-Opioid receptor, % inhibition [1 μM]” value turned out to be 82% and the Ki was 87 nM.

For the compound `CN(C)C(c1ccc(F)cc1)C1CCC(NC(=O)c2ccc(Cl)c(Cl)c2)CC1` (stereo not shown) [compound 270, 3,4-dichloro-N-{4-[dimethylamino-(4-fluoro-phenyl)-methyl]-cyclohexyl}-benzamide], the inhibition at 1 µM is 75% and the Ki was 190 nM.

Regarding `CN(C)C(c1cccc(F)c1)C1CCC(CCNC(=O)c2cc(F)cc(F)c2)CC1` (stereo not shown) [compound 435, N-(2-{4-[dimethylamino-(3-fluoro-phenyl)-methyl]-cyclohexyl}-ethyl)-3,5-difluoro-benzamide], the inhibition at 1 µM was found to be 99% and the Ki is 14 nM.

As for `CN(C)C(c1cccc(F)c1)C1CCC(NC(=O)c2csc(-c3ccccc3)n2)CC1` (stereo not shown) [compound 264, 2-phenyl-thiazole-4-carboxylic acid {4-[dimethylamino-(3-fluoro-phenyl)-methyl]-cyclohexyl}-amide], the inhibition at 1 µM turned out to be 78% and the Ki was found to be 110 nM.

Take `CN(C)C(c1ccccc1)C1CCC(NC(=O)C2CCCC2)CC1` (stereo not shown) [compound 288, cyclopentanecarboxylic acid [4-(dimethylamino-phenyl-methyl)-cyclohexyl]-amide]: the inhibition at 1 µM was 70% and the Ki came to 160 nM.
